The values that follow come from ChEMBL document CHEMBL1152841, “Conformationally constrained analogues of N'-(4-tert-butylbenzyl)-N-(4-methylsulfonylaminobenzyl)thiourea as TRPV1 antagonists” (Eur J Med Chem, 2009).

Test [1] concerns the target T1, Transient receptor potential cation channel subfamily V member 1 (Rattus norvegicus, UniProt O35433). Briefly: Antagonist activity at rat TRPV1 expressed in CHO cells assessed as capsaicin-stimulated 45Ca2+ uptake. Type of test: functional, cell-based.
For test [2], the target named is T1, Transient receptor potential cation channel subfamily V member 1. As to the kind of experiment: Displacement of [3H]resiniferatoxin from rat TRPV1 expressed in CHO cells by scintillation counting. Type of test: cell-based.
Test [3] addresses Transient receptor potential cation channel subfamily V member 1 (Rattus norvegicus) (UniProt O35433). Briefly: Agonist activity at rat TRPV1 expressed in CHO cells by 45Ca2+ uptake assay relative to capsaicin. Type of test: functional, cell-based.
Test [4] deals with T1, Transient receptor potential cation channel subfamily V member 1. Briefly: Agonist activity at rat TRPV1 expressed in CHO cells by 45Ca2+ uptake assay. Type of test: functional, cell-based.

T1 sequence (O35433 whole entry): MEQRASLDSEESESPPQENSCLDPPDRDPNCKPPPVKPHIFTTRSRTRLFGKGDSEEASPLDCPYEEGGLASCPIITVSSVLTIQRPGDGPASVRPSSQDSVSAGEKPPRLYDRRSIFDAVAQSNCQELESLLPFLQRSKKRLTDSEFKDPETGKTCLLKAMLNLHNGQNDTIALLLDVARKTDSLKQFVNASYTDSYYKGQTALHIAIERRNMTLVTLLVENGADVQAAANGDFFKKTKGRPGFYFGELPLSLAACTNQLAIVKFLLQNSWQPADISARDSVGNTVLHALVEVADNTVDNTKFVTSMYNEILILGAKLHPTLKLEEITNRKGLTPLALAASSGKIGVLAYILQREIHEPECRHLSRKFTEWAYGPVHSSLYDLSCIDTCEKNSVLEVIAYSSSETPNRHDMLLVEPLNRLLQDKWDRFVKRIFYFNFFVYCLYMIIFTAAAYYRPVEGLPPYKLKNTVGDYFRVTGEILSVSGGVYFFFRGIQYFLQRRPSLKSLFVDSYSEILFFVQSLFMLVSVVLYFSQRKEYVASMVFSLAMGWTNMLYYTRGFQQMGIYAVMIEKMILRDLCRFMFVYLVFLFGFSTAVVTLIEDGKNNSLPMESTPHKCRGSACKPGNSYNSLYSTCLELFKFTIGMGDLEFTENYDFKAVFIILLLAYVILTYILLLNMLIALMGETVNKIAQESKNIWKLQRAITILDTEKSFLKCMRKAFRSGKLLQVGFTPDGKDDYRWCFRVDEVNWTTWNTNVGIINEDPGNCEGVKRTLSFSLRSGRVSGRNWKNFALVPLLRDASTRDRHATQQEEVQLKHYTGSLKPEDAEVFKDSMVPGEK
Transient receptor potential cation channel subfamily V member 1 (Rattus norvegicus), sequence (O35433 whole entry): as above

Consider `COc1cc2c(cc1NS(C)(=O)=O)CCC2NC(=S)NCc1ccc(C(C)(C)C)cc1` (centres undefined), for which the inhibition constant Ki is 25000 nM in test [1] and 3370 nM in test [2].

Turning to `COc1c(NS(C)(=O)=O)ccc2c1CCCC2NC(=S)NCc1ccc(C(C)(C)C)cc1` (centres undefined), the values for the Ki in test [1] and in test [2] were 4700 nM and 1750 nM, respectively.

Take `CC(C)(C)c1ccc(CNC(=S)NC2CCCc3cc(NS(C)(=O)=O)ccc32)cc1` (centres undefined): the values for the Ki in test [1] and in test [2] were 2640 nM and 1590 nM, respectively.

As to `COc1cc2c(cc1NS(C)(=O)=O)CCCC2NC(=S)NCc1ccc(C(C)(C)C)cc1` (centres undefined), in test [3], the Activity came to 14%. In addition, affinity in test [2] was put at a Ki of 6900 nM.

For the compound `COc1c(NS(C)(=O)=O)ccc2c1CCC2NC(=S)NCc1ccc(C(C)(C)C)cc1` (centres undefined), the Ki in test [1] stood at 1690 nM; in test [2] it was 1820 nM.

On to `CC(C)(C)c1ccc(CNC(=S)NC2CCc3cc(NS(C)(=O)=O)ccc32)cc1` (centres undefined), for which the inhibition constant Ki in test [1] worked out at 740 nM; in test [2], 660 nM.

As for `COc1cc(CNC(=S)NCc2ccc(C(C)(C)C)cc2)ccc1NS(C)(=O)=O`, the Activity in test [3] was determined as 17%. For the same compound, the EC50 in test [4] was found to be 32.4 nM.
